Biological target: T1, Human Factor D (Homo sapiens, UniProt P00746)
T1 construct: purified from human serum; purchased Complement Technology, Inc; host or cells: human serum (natural protein, not recombinant)
Test: Human Factor D Assay
Format: biochemical
Conditions: not given
Description: Example 8. Human Factor D Assay
Human Factor D (purified from human serum, Complement Technology, Inc.) at 80 nM final concentration is incubated with test compound at various concentrations for 5 minutes at room temperature in 50 mM Tris, 1M NaCl, pH 7.5. A synthetic substrate Z-L-Lys-SBzl and DTNB (Ellman's reagent) are added to final concentrations of 100 μM each. Absorbance at 405 nm (A405) is recorded at 30 second intervals for 30 minutes using a microplate spectrophotometer. IC50 values are calculated by nonlinear regression of complement Factor D reaction rates as a function of test compound concentration.

T1 sequence (P00746 26-253): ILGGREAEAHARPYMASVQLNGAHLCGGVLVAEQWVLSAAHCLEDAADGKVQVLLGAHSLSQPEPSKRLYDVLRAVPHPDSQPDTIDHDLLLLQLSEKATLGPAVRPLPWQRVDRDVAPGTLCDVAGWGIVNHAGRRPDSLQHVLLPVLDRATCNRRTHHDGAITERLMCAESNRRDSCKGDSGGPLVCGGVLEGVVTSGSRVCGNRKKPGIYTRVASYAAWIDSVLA

| Compound | IC50 [µM] |
| --- | --- |
| CC(=O)c1cn(CC(=O)N2C[C@H](F)C[C@H]2C(=O)NCc2cccc(Cl)c2F)c2cc(OCS(=O)(=O)NC(C)(C)C)ccc12 [Compound 15, (2S,4R)-1-(2-(3-Acetyl-6-((N-(tert-butyl)sulfamoyl)methoxy)-1H-indol-1-yl)acetyl)-N-(3-chloro-2-fluorobenzyl)-4-fluoropyrrolidine-2-carboxamide] | < 1 |
| CC(=O)c1cn(CC(=O)N2C[C@H](F)C[C@H]2C(=O)Nc2cccc(-c3ccccc3Cl)c2F)c2ccc(Oc3cnc(Cl)nc3)cc12 [Compound 43, (2S,4R)-1-(2-(3-acetyl-5-(2-chloropyrimidin-5-yloxy)-1H-indol-1-yl)acetyl)-N-(2′-chloro-2-fluorobiphenyl-3-yl)-4-fluoropyrrolidine-2-carboxamide] | < 1 |
| NC(=O)c1nn(CC(=O)N2C[C@H](F)C[C@H]2C(=O)Nc2cccc(-c3ccccc3Cl)c2F)c2ccc(Oc3cncnc3)cc12 [Compound 31, 1-(2-((2S,4R)-2-((2′-Chloro-2-fluoro-[1,1′-biphenyl]-3-yl)carbamoyl)-4-fluoropyrrolidin-1-yl)-2-oxoethyl)-5-(pyrimidin-5-yloxy)-1H-indazole-3-carboxamide] | < 1 |
| CC(=O)c1cn(CC(=O)N2C[C@H](F)C[C@H]2C(=O)NCc2cccc(Cl)c2F)c2cc(OCCC3CC3)ccc12 [Cmp 5] | < 1 |
| CC(=O)c1cn(CC(=O)N2C[C@H](F)C[C@H]2C(=O)NCc2cccc(Cl)c2F)c2cc(OCP(=O)(OCOC(=O)C(C)(C)C)OCOC(=O)C(C)(C)C)ccc12 [Compound 21, (((((3-Acetyl-1-(2-((2S,4R)-2-((3-chloro-2-fluorobenzyl)carbamoyl)-4-fluoropyrrolidin-1-yl)-2-oxoethyl)-1H-indol-6-yl)oxy)methyl)phosphoryl)bis(oxy))bis(methylene) bis(2,2-dimethylpropanoate)] | < 1 |

Same assay, conditions: Table 1; Human Factor D 80 nM, substrate Z-L-Lys-SBzl; read-out: IC50

| Compound | IC50 [µM] |
| --- | --- |
| CC(=O)c1cn(CC(=O)N2C[C@H](F)C[C@H]2C(=O)Nc2ccc(OC(F)(F)F)c(F)c2)c2cc(OCP(=O)(O)O)ccc12 [Compound 25, (3-acetyl-1-(2-((2S,4R)-4-fluoro-2-(3-fluoro-4-(trifluoromethoxy)phenylcarbamoyl)pyrrolidin-1-yl)-2-oxoethyl)-1H-indol-6-yloxy)methylphosphonic acid] | < 1 |
| CC(=O)c1cn(CC(=O)N2C[C@H](F)C[C@H]2C(=O)NCc2cccc(Cl)c2F)c2cc(OCP(=O)(OCOC(=O)OC(C)C)OCOC(=O)OC(C)C)ccc12 [Compound 12, (((3-acetyl-1-(2-((2S,4R)-2-(3-chloro-2-fluorobenzylcarbamoyl)-4-fluoropyrrolidin-1-yl)-2-oxoethyl)-1H-indol-6-yloxy)methyl)phosphoryl)bis(oxy)bis(methylene) isopropyl dicarbonate] | < 1 |
| CC(=O)c1cn(CC(=O)N2C[C@H](F)C[C@H]2C(=O)Nc2cccc(OC(F)(F)F)c2F)c2cc(OCC3CC3)ccc12 [Cmp 4] | < 1 |
| CC(=O)c1cn(CC(=O)N2C[C@H](F)C[C@H]2C(=O)N[C@H](C)c2cccc(Cl)c2F)c2cc(OCP(=O)(O)O)ccc12 [Compound 19, (3-acetyl-1-(2-((2S,4R)-2-((R)-1-(3-chloro-2-fluorophenyl)ethylcarbamoyl)-4-fluoropyrrolidin-1-yl)-2-oxoethyl)-1H-indol-6-yloxy)methylphosphonic acid] | < 1 |
| CC(=O)c1cn(CC(=O)N2C[C@H](F)C[C@H]2C(=O)Nc2cccc(-c3ccccc3Cl)c2F)c2ccc(Oc3ncccn3)cc12 [Compound 38, (2S,4R)-1-(2-(3-acetyl-5-(pyrimidin-2-yloxy)-1H-indol-1-yl)acetyl)-N-(2′-chloro-2-fluorobiphenyl-3-yl)-4-fluoropyrrolidine-2-carboxamide] | < 1 |
| CC(=O)c1cn(CC(=O)N2C[C@H](F)C[C@H]2C(=O)Nc2cccc(-c3ccccc3Cl)c2F)c2ccc(Oc3ncc(C)cn3)cc12 [Compound 40, (2S,4R)-1-(2-(3-acetyl-5-(5-methylpyrimidin-2-yloxy)-1H-indol-1-yl)acetyl)-N-(2′-chloro-2-fluorobiphenyl-3-yl)-4-fluoropyrrolidine-2-carboxamide] | < 1 |
| CCOP(=O)(COc1ccc2c(C(C)=O)cn(CC(=O)N3C[C@H](F)C[C@H]3C(=O)N[C@H](C)c3cccc(Cl)c3F)c2c1)OCC [Compound 18, diethyl (3-acetyl-1-(2-((2S,4R)-2-((R)-1-(3-chloro-2-fluorophenyl)ethylcarbamoyl)-4-fluoropyrrolidin-1-yl)-2-oxoethyl)-1H-indol-6-yloxy)methylphosphonate] | < 1 |

Same assay, conditions: Table 3; Human Factor D 80 nM, substrate Z-L-Lys-SBzl; read-out: (IC50 (Stars))

| Compound | IC50 [µM] |
| --- | --- |
| CC(=O)c1nn(CC(=O)N2C[C@H]3C[C@H]3[C@H]2C(=O)Nc2nc(Br)ccc2C)c2ccc(O[C@@H]3CO[C@H]4[C@@H]3OC[C@H]4O)cc12 [Compound 185, (1R,2S,5S)-3-(2-(3-Acetyl-5-((3R,3aR,6R,6aR)-6-hydroxyhexahydrofuro[3,2-b]furan-3-yloxy)-1H-indazol-1-yl)acetyl)-N-(6-bromo-3-methylpyridin-2-yl)-3-azabicyclo[3.1.0]hexane-2-carboxamide] | < 1 |
| COc1cc(Br)nc(NC(=O)[C@@H]2C[C@@H](F)CN2C(=O)Cn2nc(C(C)=O)c3cc(Oc4ncc(C)cn4)ccc32)c1 [Compound 174, (2S,4R)-1-(2-(3-Acetyl-5-((5-methylpyrimidin-2-yl)oxy)-1H-indazol-1-yl)acetyl)-N-(6-bromo-4-methoxypyridin-2-yl)-4-fluoropyrrolidine-2-carboxamide] | < 1 |
| CC(=O)c1nn(CC(=O)N2C[C@H](F)C[C@H]2C(=O)Nc2cccc(Br)n2)c2ccc(OC3CCCC3)cc12 [Compound 194, (2S,4R)-1-(2-(3-acetyl-5-(cyclopentyloxy)-1H-indazol-1-yl)acetyl)-N-(6-bromopyridin-2-yl)-4-fluoropyrrolidine-2-carboxamide] | < 1 |
| CC(=O)c1nn(CC(=O)N2C[C@H]3C[C@H]3[C@H]2C(=O)Nc2nc(Br)ccc2C2CC2)c2ccc(O[C@@H]3CO[C@H]4[C@@H]3OC[C@H]4O)cc12 [Compound 184, (1R,2S,5S)-3-(2-(3-Acetyl-5-((3R,3aR,6R,6aR)-6-hydroxyhexahydrofuro[3,2-b]furan-3-yloxy)-1H-indazol-1-yl)acetyl)-N-(6-bromo-3-cyclopropylpyridin-2-yl)-3-azabicyclo[3.1.0]hexane-2-carboxamide] | < 1 |
| CCOP(=O)(COc1ccc2c(c1)c(C(C)=O)cn2CC(=O)N1C[C@H](F)C[C@H]1C(=O)NCCCCc1ccccc1)OCC [Compound 150, Diethyl (((3-acetyl-1-(2-((2S,4R)-4-fluoro-2-((4-phenylbutyl)carbamoyl)pyrrolidin-1-yl)-2-oxoethyl)-1H-indol-5-yl)oxy)methyl)phosphonate] | < 1 |
| CCOP(=O)(COc1ccc2c(c1)c(C(C)=O)cn2CC(=O)N1C[C@H](F)C[C@H]1C(=O)NCc1ccccc1)OCC [Compound 144, Diethyl (((3-acetyl-1-(2-((2S,4R)-2-(benzylcarbamoyl)-4-fluoropyrrolidin-1-yl)-2-oxoethyl)-1H-indol-5-yl)oxy)methyl)phosphonate] | < 1 |
| CC(=O)c1nn(CC(=O)N2[C@@H]3C[C@@H]3C[C@H]2C(=O)Nc2cccc(Br)n2)c2ccc(Oc3ncc(C)cn3)cc12 [Compound 171, (1R,3S,5R)-2-(2-(3-Acetyl-5-((5-methylpyrimidin-2-yl)oxy)-1H-indazol-1-yl)acetyl)-N-(6-bromopyridin-2-yl)-2-azabicyclo[3.1.0]hexane-3-carboxamide] | < 1 |
| CC(=O)c1cn(CC(=O)N2C[C@H](F)C[C@H]2C(=O)Nc2cccc(-c3ccccc3Cl)c2F)c2ccc(OCCS(=O)(=O)CC3(C)COC3)cc12 [Compound 253, (2S,4R)-1-(2-(3-acetyl-5-(2-((3-methyloxetan-3-yl)methylsulfonyl)ethoxy)-1H-indol-1-yl)acetyl)-N-(2′-chloro-2-fluorobiphenyl-3-yl)-4-fluoropyrrolidine-2-carboxamide] | < 1 |
| CCOP(=O)(COc1ccc2c(c1)c(C(C)=O)cn2CC(=O)N1C[C@H](F)C[C@H]1CCNS(=O)(=O)c1ccccc1)OCC [Compound 158, Diethyl (((3-acetyl-1-(2-((2R,4R)-4-fluoro-2-(2-(phenylsulfonamido)ethyl)pyrrolidin-1-yl)-2-oxoethyl)-1H-indol-5-yl)oxy)methyl)phosphonate] | 1 to 10 |
| CC(=O)c1nn(CC(=O)N2[C@@H]3C[C@@H]3C[C@H]2C(=O)Nc2ccc(F)c(Br)n2)c2ccc(Oc3ncc(C)cn3)cc12 [Compound 177, (1R,3S,5R)-2-(2-(3-Acetyl-5-((5-methylpyrimidin-2-yl)oxy)-1H-indazol-1-yl)acetyl)-N-(6-bromo-5-fluoropyridin-2-yl)-2-azabicyclo[3.1.0]hexane-3-carboxamide] | < 1 |
| Cc1cccc(NC(=O)[C@@H]2[C@H]3CC[C@H](C3)N2C(=O)Cn2cc(C(N)=O)c3cc(OCP(=O)(O)O)ccc32)n1 [Compound 183, (((3-carbamoyl-1-(2-((1R,3S,4S)-3-((6-methylpyridin-2-yl)carbamoyl)-2-azabicyclo[2.2.1]heptan-2-yl)-2-oxoethyl)-1H-indol-5-yl)oxy)methyl)phosphonic acid] | > 10 |
| CC(=O)c1cn(CC(=O)N2C[C@H](F)C[C@H]2C(=O)NCc2ccccc2)c2ccc(OCS(N)(=O)=O)cc12 [Compound 130, (2S,4R)-1-(2-(3-Acetyl-5-(sulfamoylmethoxy)-1H-indol-1-yl)acetyl)-N-benzyl-4-fluoropyrrolidine-2-carboxamide] | < 1 |
| CC(=O)c1cn(CC(=O)N2C[C@H](F)C[C@H]2C(=O)NCCc2ccccc2)c2ccc(OCS(=O)(=O)NC(C)(C)C)cc12 [Compound 132, (2S,4R)-1-(2-(3-Acetyl-5-((N-(tert-butyl)sulfamoyl)methoxy)-1H-indol-1-yl)acetyl)-4-fluoro-N-phenethylpyrrolidine-2-carboxamide] | < 1 |
